This is an account of results in US20110263631A1, “COMBINATION OF A SEROTONIN AND NOREPINEPHRINE REUPTAKE INHIBITOR AND AN OPIOID AGONIST FOR THE TREATMENT OF PAIN” (priority 2010, published 2011).

One series deals with rat formalin pain model. As to the kind of experiment: Rat formalin model of pain (inhibition of formalin-induced flinching). It counts as in vivo. The following applies: for SNRI Dose Response ED50 (Confidence Interval): phase 2A, SNRI IP alone or plus 1 mg/kg morphine SC, 95% CI.
Series [1] in a line: Pharmacokinetic studies: plasma concentrations alone or in combination. The following applies: rat; for Plasma concentrations of SNRI alone versus in combination with morphine: compound 1 3 mg/kg, duloxetine 10 mg/kg or atomoxetine 10 mg/kg IP, morphine 3 mg/kg SC or vehicle SC.
A further series deals with T1, rat SERT (Rattus norvegicus, UniProt P31652).
T1 construct: from tissue; host or cells: rat cortex or lumbar spinal cord homogenate from dosed animals
The series is described as follows: Ex vivo SERT transporter occupancy ([3H]-citalopram association). It counts as in vivo. The following applies: 1.25 h post dose, ± Standard Error; for receptor occupancy at 3 mg/kg: 3 mg/kg IP; for receptor occupancy at 10 mg/kg: 10 mg/kg IP.

The target in another series is T2, rat NET (Rattus norvegicus, UniProt Q63380).
T2 construct: from tissue; host or cells: rat cortex or lumbar spinal cord homogenate from dosed animals
As to the kind of experiment: Ex vivo NET transporter occupancy ([3H]-nisoxetine association). It counts as in vivo. The conditions noted are these: lumbar spinal cord, 1.25 h post dose, ± Standard Error.

In a further series the target is SERT (Rattus norvegicus, UniProt P31652). As to the kind of experiment: 3H-5-HT uptake assay in rat brain synaptosomal preparations.
The target of the next series is hSERT (Homo sapiens, UniProt P31645). The series is described as follows: 3H-5-HT neurotransmitter uptake assay in HEK-293 cells expressing hSERT.
Another series concerns the target hNET (Homo sapiens, UniProt P23975). As to the kind of experiment: 3H-NE neurotransmitter uptake assay in HEK-293 cells expressing hNET.
The target of series [2] is NET (Rattus norvegicus, UniProt Q63380). As to the kind of experiment: 3H-NE uptake assay in rat brain synaptosomal preparations. The following applies: Rat brain synaptosomes, 3H-NE uptake.
Text: (§1) Neurotransmitter uptake assays were used to measure inhibition of ^3H-serotonin (^3H-5-HT) and ^3H-norepinephrine (^3H-NE) uptake into cells expressing the respective human recombinant transporter (hSERT or hNET) and into rat brain synaptosomal preparations in order to determine the pIC50 values of test compounds at the human and rat monoamine transporters, respectively.
(§2) Rats were euthanized by decapitation. Rat freshly dissected cortical tissue pieces were suspended in ice-cold Sucrose Buffer at a ratio of 100 mg wet weight of tissue per 1 mL of buffer. The tissues were homogenized using a pre-chilled glass dounce homogenizer for 20 strokes. The homogenate was centrifuged at 1,000×g (10 min at 4° C.). The pellet was discarded and the resulting supernatant was centrifuged at 10,000×g (20 min at 4° C.) to obtain the crude synaptosomal pellet. Synaptosomes were resuspended in Sucrose Buffer and the protein concentration was determined by the method of Bradford (Bradford (1976) Analytical Biochemistry 72:24854) and used immediately following preparation.
(§3) Neurotransmitter uptake assays were performed in a 96-well assay plate in a total volume of 400 μg containing 1.5×10^4 and 2.5×10^4 cells, for SERT and NET, respectively or 10 μg cortical synaptosomal protein in assay buffer (Krebs-Ringer bicarbonate buffer containing HEPES (10 mM), CaCl2 (2.2 mM), ascorbic acid (200 μM) and pargyline (200 μM), pH 7.4). […]
(§4) Following a 10 minute incubation for cells (6 minute incubation for rat synaptosomes) at 37° C. with radioligand, the reactions were terminated by rapid filtration over a 96-well UniFilter GF/B plate, pretreated with 1% BSA, and washed 6 times with 650 μl wash buffer (ice cold PBS). Plates were dried, 35-45 μl of MicroScint™-20 (Perkin Elmer) added and incorporated radioactivity quantitated via liquid scintillation counting. Inhibition curves were analyzed using the GraphPad Prism Software package (GraphPad Software, Inc., San Diego, Calif.).
The subject of series [3] is NET. The description is as above.
Text: as §1, §2, §3, §4

T1 sequence (P31652 whole entry): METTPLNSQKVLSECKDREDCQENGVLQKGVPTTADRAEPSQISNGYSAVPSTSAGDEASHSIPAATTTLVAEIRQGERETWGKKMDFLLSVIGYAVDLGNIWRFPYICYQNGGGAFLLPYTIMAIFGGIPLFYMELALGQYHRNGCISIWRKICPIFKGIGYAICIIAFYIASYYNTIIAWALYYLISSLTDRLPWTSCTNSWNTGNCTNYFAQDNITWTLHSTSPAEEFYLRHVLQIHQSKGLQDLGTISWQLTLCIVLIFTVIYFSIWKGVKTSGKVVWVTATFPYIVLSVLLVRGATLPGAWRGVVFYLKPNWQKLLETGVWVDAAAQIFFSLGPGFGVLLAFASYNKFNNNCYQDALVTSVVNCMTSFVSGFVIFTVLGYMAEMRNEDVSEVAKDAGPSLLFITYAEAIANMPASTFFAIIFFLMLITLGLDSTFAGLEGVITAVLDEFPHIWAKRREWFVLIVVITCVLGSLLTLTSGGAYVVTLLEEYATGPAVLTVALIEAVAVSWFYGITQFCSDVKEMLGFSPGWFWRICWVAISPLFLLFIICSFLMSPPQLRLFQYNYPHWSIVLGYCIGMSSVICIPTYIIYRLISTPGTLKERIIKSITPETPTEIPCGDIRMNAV
Sequence of hNET (P23975 whole entry): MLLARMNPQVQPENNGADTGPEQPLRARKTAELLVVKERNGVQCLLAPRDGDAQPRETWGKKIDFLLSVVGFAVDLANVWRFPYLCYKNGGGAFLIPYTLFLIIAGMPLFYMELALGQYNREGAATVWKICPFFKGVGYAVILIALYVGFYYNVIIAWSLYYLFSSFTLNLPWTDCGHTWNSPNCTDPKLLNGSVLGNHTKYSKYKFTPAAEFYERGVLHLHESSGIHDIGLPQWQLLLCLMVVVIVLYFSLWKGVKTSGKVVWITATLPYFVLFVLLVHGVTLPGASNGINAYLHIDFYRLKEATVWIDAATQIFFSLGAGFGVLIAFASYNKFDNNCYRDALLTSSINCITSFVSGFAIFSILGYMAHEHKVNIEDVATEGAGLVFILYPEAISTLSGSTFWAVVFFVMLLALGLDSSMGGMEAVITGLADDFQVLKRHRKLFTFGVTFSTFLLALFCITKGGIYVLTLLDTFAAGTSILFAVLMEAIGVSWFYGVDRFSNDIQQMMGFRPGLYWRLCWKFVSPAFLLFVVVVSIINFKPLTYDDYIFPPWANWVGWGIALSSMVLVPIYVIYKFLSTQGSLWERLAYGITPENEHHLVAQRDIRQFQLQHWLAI
T2 sequence (Q63380 1-617): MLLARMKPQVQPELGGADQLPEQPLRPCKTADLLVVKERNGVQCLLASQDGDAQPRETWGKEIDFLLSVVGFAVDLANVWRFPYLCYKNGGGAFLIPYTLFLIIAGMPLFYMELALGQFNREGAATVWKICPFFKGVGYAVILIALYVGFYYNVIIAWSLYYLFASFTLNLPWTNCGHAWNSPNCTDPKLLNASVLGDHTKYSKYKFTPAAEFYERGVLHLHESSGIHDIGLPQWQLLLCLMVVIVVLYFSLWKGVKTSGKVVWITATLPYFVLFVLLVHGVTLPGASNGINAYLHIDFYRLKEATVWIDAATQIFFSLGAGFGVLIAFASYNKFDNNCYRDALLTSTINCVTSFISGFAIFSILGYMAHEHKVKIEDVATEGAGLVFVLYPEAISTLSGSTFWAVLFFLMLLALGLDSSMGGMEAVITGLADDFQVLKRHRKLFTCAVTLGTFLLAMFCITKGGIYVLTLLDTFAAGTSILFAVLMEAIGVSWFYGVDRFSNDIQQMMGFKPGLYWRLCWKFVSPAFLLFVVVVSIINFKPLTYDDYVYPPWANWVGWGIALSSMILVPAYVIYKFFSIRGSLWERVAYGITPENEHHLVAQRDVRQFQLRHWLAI
Sequence of SERT (P31652 whole entry): as the sequence (P31652 whole entry) above
Sequence of NET (Rattus norvegicus, UniProt Q63380) (Q63380 1-617): as the sequence (Q63380 1-617) above
Sequence of hSERT (P31645 whole entry): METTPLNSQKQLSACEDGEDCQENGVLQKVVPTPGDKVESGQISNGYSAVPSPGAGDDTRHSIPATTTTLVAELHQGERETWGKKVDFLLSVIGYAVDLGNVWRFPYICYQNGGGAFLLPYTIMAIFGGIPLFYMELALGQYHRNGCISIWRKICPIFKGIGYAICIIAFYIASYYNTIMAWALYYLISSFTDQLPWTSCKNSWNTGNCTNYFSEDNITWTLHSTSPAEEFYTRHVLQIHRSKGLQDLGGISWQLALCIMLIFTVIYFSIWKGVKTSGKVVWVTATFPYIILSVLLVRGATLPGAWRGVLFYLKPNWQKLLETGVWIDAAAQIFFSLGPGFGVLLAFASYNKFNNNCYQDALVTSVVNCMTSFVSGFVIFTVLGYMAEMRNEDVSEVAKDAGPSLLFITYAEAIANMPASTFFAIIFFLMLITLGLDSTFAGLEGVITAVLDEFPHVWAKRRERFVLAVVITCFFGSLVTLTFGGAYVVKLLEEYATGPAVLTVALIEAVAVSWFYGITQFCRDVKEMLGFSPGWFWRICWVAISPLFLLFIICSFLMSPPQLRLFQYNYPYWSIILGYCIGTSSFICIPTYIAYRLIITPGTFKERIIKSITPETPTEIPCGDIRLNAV
Experimental for hNET: as §1
HEK-293 derived cell lines stably-transfected with hSERT or, hNET, respectively, were grown in Dulbecco's modified Eagles Medium (DMEM) supplemented with 10% dialyzed FBS (for hSERT) or FBS (for hNET), 100 μg/ml penicillin, 100 μg/ml streptomycin, 2 mM L-glutamine and 250 μg/ml of the aminoglycoside antibiotic G418 in a 5% CO2 humidified incubator at 37° C. When cultures reached 50-80% confluence, the cells were washed thoroughly in PBS (without Ca^2+ and Mg^2+) and lifted with 5 mM EDTA in PBS. Cells were harvested by centrifugation at 1100 rpm for 5 minutes, the supernatant was discarded, and the cell pellet resuspended, by gentle trituration, in room temperature Krebs-Ringer bicarbonate buffer containing HEPES (10 mM), CaCl2 (2.2 mM), ascorbic acid (200 μM) and pargyline (200 μM), pH 7.4. The final concentration of cells in the cell suspension was 7.5×10^4 cells/ml for hSERT and 12.5×10^4 cells/ml for hNET. […]
as §4
Experimental for hSERT: as §1
HEK-293 derived cell lines stably-transfected with hSERT or, hNET, respectively, were grown in Dulbecco's modified Eagles Medium (DMEM) supplemented with 10% dialyzed FBS (for hSERT) or FBS (for hNET), 100 μg/ml penicillin, 100 μg/ml streptomycin, 2 mM L-glutamine and 250 μg/ml of the aminoglycoside antibiotic G418 in a 5% CO2 humidified incubator at 37° C. […]
as §4
Text for rat NET: (§5) To monitor SERT and NET transporter occupancy, an ex vivo occupancy assay was used in which the initial rate of association of a SERT- or NET-selective radioligand, respectively, to the tissue homogenates was monitored. The initial rate of association of radioligand is directly proportional to the level of free (unoccupied) transporter.
The spinal cord was harvested by hydraulic extrusion with PBS. An 18 gauge needle was inserted into the spinal column near the iliac crest and the buffer injected into the spinal column with the resultant extrusion of the spinal cord, intact. […]
(§6) Total and non-specific binding was determined at a single concentration of radioligand (in parentheses): [^3H]-citalopram (3 nM) and [^3H]-nisoxetine (5 nM) at SERT and NET, respectively. […] Filter plates were washed six times with wash buffer (ice-cold 50 mM Tris-HCl, 0.9% NaCl, at 4° C.) to remove unbound radioactivity. Plates were dried, 35-45 μL Microscint-20 liquid scintillation fluid (Packard BioScience Co., Meriden, Conn.) was added to each well, and plates were counted in a Packard Topcount liquid scintillation counter (Packard BioScience Co., Meriden, Conn.).
Specific binding was calculated using total (in the absence of test compound) and non-specific (determined as described above) binding from the same plate as follows: specific binding=value−non-specific binding. […]
Experimental for rat SERT: as §5
Rats were euthanized 1.25 hours post compound administration by decapitation. Following decapitation, the brain was removed and placed on to a clean metal block, on ice. A parasagittal cut was made through the entire brain, around 4 mm lateral to the midline. The lateral cortex pieces were discarded. A midsagittal cut was made through the entire length of the brain. The block of brain corresponding to each hemisphere was then placed on to the respective lateral cut surface, such that the midsagittal surface was uppermost. A single cut was made parallel to, and about 1 mm dorsal to, the corpus callosum to remove a cortex piece, which was frozen on dry ice prior to storage at −80° C. The spinal cord was harvested by hydraulic extrusion with PBS. An 18 gauge needle was inserted into the spinal column near the iliac crest and the buffer injected into the spinal column with the resultant extrusion of the spinal cord, intact. The lumbar spinal cord (approximately 1-1.5 cm in length) was rapidly dissected and frozen on dry ice prior to storage at −80° C.
The frozen tissue pieces were weighed and kept on dry ice prior to homogenization. […]
as §6
Specific binding was calculated using total (in the absence of test compound) and non-specific (determined as described above) binding from the same plate as follows: specific binding=value−non-specific binding. Data then were analyzed by linear regression analysis with the GraphPad Prism Software package (GraphPad Software, Inc., San Diego, Calif.). The initial rates of association of [^3H]-citalopram or [^3H]-nisoxetine, equal to the slope of the straight line, were determined by fitting data points, specific binding (cpm) versus time (min). The average of the initial rates of [^3H]-citalopram or [^3H]-nisoxetine association from vehicle-dosed animals was calculated. […]

For `CNCC[C@H](Oc1cccc2ccccc12)c1cccs1` [Duloxetine, duloxetine, reference compound], the morphine sparing effect entry in the series with rat formalin pain model (duloxetine 5 mg/kg IP co-administered with ondansetron 3 mg/kg IP, with morphine 1 mg/kg SC) was “a morphine sparing effect was observed”. Further, the “inhibition of flinching behavior (in words)” value in the series on rat formalin pain model (single administration of 10 mg/kg duloxetine) was “significant inhibition of flinching behavior”.
For the compound `COc1ccc2c3c1O[C@H]1C(=O)CC[C@@]4(O)[C@@H](C2)N(C)CC[C@]314` [Oxycodone, oxycodone], the “Plasma concentrations alone versus combination of compound 1 and oxycodone” value in series [1] (compound 1 10 mg/kg IP, oxycodone 3 mg/kg SC) was “equivalent”.
In the case of `CNCC[C@@H](Oc1ccccc1C)c1ccccc1` [Atomoxetine, atomoxetine, reference compound], the “Plasma concentrations of SNRI alone versus in combination with morphine” value in [1] is given as “equivalent”. At rat SERT (cortex), this compound displayed a receptor occupancy at 3 mg/kg of 35 ± 9% and a receptor occupancy at 10 mg/kg of 64 ± 5%. Besides, the “SNRI Dose Response ED50 (Confidence Interval)” value with rat formalin pain model (rat formalin model) is on record as 24.4 (14.5-41.1) (n = 6-12) mg/kg.
One may read the IC50 as the concentration needed to halve the response being measured. Usually inhibition stands for how much of the control response was suppressed. Regarding `Fc1cc(F)c(OCc2ccccc2C2CCNCC2)c(F)c1` [Compound 1, 4-[2-(2,4,6-trifluoro-phenoxymethyl)-phenyl]-piperidine], in [1], the “Plasma concentrations of SNRI alone versus in combination with morphine” value was “equivalent”. Moreover, the receptor occupancy at 3 mg/kg on rat NET (3 mg/kg IP) came out at 77 ± 15%; at rat SERT (lumbar spinal cord), 23 ± 14%. Also, the receptor occupancy at 10 mg/kg at rat NET (10 mg/kg IP) is 81 ± 6%; at rat SERT (lumbar spinal cord) it was 46 ± 20%. The IC50 on SERT was 12.6 nM; against hSERT, 10 nM; against hNET, 2.51 nM. For the same compound, the inhibition at 10 mg/kg with rat formalin pain model (Rattus norvegicus, single administration of 10 mg/kg compound 1 IP, mean±SEM, read-out: inhibition of flinching behavior) is 20 ± 7%. Besides, in the series with rat formalin pain model (first 10 minutes post formalin injection (acute pain processing)), the “pain behavior during phase 1” value is “Decreases in pain behavior were also observed”. For the same compound, the “SNRI Dose Response ED50 (Confidence Interval)” value with rat formalin pain model (rat formalin model) was 20.0 (14.0-28.4) mg/kg. Further, in the series on rat formalin pain model (rat formalin model, 3 mg/kg IP compound 1 plus morphine SC, 3 mg/kg), the “interaction with morphine (shift of morphine dose response curve)” value was “failed to significantly shift the morphine dose response curve”. The “interaction with oxycodone (ED50 shift, isobolographic analysis)” value with rat formalin pain model (rat formalin model, 10 mg/kg IP compound 1 plus oxycodone SC) was “synergistic interaction”. Further, the “interaction with morphine (ED50 shift, isobolographic analysis)” value with rat formalin pain model (rat formalin model, compound 1 or atomoxetine 10 mg/kg IP, duloxetine 3, 5 or 10 mg/kg IP, morphine SC) is recorded as “synergistic interaction”. Besides, the NET selectivity on hNET worked out at 4; in the series on NET [3] (Rat brain synaptosomes, 10**(NET pIC50 − SERT pIC50)) it was 10. The “selectivity for NET (ratio of SERT to NET IC50 values)” value on hNET (human recombinant cell-based assay) is given as “about 4 fold”; in the series with NET [3] (rat brain synaptosomal preparations), “about 10 fold”. The “NET pIC50” value at NET [2] was determined as 8.9.
As to `CN1CC[C@]23c4c5ccc(O)c4O[C@H]2[C@@H](O)C=C[C@H]3[C@H]1C5` [Morphine, morphine, reference compound], the inhibition at 1 mg/kg in the series with rat formalin pain model (Rattus norvegicus, sc, read-out: inhibition of flinching behavior) stood at 13 ± 11%.
